Data set [1] deals with Monocotyledonous and dicotyledonous test plants. Briefly: Herbicidal action, application pre-emergence (Example B1). Further details: key: 10=total damage to plant; 0=no damage to plant. Particulars: 1000 g/ha, scale 10=total damage to plant, 0=no damage to plant, evaluated after 9 or 13 days. The class given is in vivo. On the procedure:
Monocotyledonous and dicotyledonous test plants were sown in sterilised standard soil in seed trays each having 96 cells. After one day (pre-emergence) or after 8 to 9 days cultivation (post-emergence) under controlled conditions in a climatic chamber (cultivation at 17/23° C.; 13 hours light; 50-60% humidity; after application at 19/24° C.), the plants were treated with an aqueous spray solution of 1000 mg/l of the active ingredient used (including 10% DMSO as solvent). The plants were grown on in the climatic chamber until the test was evaluated (10=total damage to plant, 0=no damage to plant) after 9 or 13 days.

`CC1(C)CC(S(=O)(Cc2c(F)cccc2F)=NC(=O)c2cccnc2Cl)=NO1` (centres unmarked) [1.21]: in data set [1], the “Herbicidal action on Agrostis (damage rating)” value (“Herbicidal action on Agrostis” below) is recorded as 10, the “Herbicidal action on Digitaria (damage rating)” value (shortened to “Herbicidal action on Digitaria”) was 9, the “Herbicidal action on Poa (damage rating)” value is 10 and the “Herbicidal action on Setaria (damage rating)” value (from here on “Herbicidal action on Setaria”) is listed as 9.

Regarding `Cc1ccccc1CS(=N)(=O)C1=NOC(C)(C)C1` (centres unmarked) [1.27], in data set [1], the “Herbicidal action on Agrostis” value turned out to be 5, the “Herbicidal action on Digitaria” value worked out at 8, the “Herbicidal action on Poa (damage rating)” value turned out to be 0 and the “Herbicidal action on Setaria” value was found to be 5.

For the molecule `CC1(C)CC(S(=N)(=O)Cc2ccccc2C(F)(F)F)=NO1` (centres unmarked) [1.31], in data set [1], the “Herbicidal action on Agrostis” value is listed as 10, the “Herbicidal action on Digitaria” value is 8, the “Herbicidal action on Poa (damage rating)” value is on record as 8 and the “Herbicidal action on Setaria” value is recorded as 8.

Turning to `CC1(C)CC(S(=N)(=O)Cc2cc(F)cc3c2OCOC3)=NO1` (centres unmarked) [1.48], in data set [1], the “Herbicidal action on Agrostis” value came out at 0, the “Herbicidal action on Digitaria” value is 8, the “Herbicidal action on Poa (damage rating)” value was found to be 0 and the “Herbicidal action on Setaria” value is on record as 8.

Regarding `CC(Cl)OC(=O)N=S(=O)(Cc1c(F)cccc1F)C1=NOC(C)(C)C1` (mixture of isomers) [1.17], in data set [1], the “Herbicidal action on Agrostis” value is listed as 10, the “Herbicidal action on Digitaria” value amounted to 8, the “Herbicidal action on Poa (damage rating)” value is recorded as 10 and the “Herbicidal action on Setaria” value was 8.

Regarding `CC1(C)CC(S(=N)(=O)Cc2ccccc2OC(F)F)=NO1` (centres unmarked) [1.25], in data set [1], the “Herbicidal action on Agrostis” value stood at 10, the “Herbicidal action on Digitaria” value worked out at 9, the “Herbicidal action on Poa (damage rating)” value is given as 10 and the “Herbicidal action on Setaria” value was 8.

On to `CC1(C)CC(S(=N)(=O)Cc2c(F)cccc2C(F)(F)F)=NO1` (centres unmarked) [1.32], for which, in data set [1], the “Herbicidal action on Agrostis” value is recorded as 10, the “Herbicidal action on Digitaria” value stood at 10, the “Herbicidal action on Poa (damage rating)” value came to 10 and the “Herbicidal action on Setaria” value is 9.

In general, melting point refers to the temperature, or range, at which the solid turns liquid. Consider `CC1(C)CC(S(=O)(Cc2c(F)cccc2F)=NC(=O)C(F)(F)F)=NO1` (centres unmarked) [1.04, 3-{2,6-difluoro-phenylmethane(N-trifluoromethyl-carbonyl)sulfoximinyl)-5,5-dimethyl-4,5-dihydroisoxazole], for which the melting point fell in the range of 143 to 144 °C. In data set [1], the “Herbicidal action on Agrostis” value is reported as 10, the “Herbicidal action on Digitaria” value is 10, the “Herbicidal action on Poa (damage rating)” value came out at 10 and the “Herbicidal action on Setaria” value is on record as 10.

Take `Cc1ccc(F)c(CS(=N)(=O)C2=NOC(C)(C)C2)c1F` (centres unmarked) [1.28]: in data set [1], the “Herbicidal action on Agrostis” value came out at 10, the “Herbicidal action on Digitaria” value is recorded as 9, the “Herbicidal action on Poa (damage rating)” value worked out at 10 and the “Herbicidal action on Setaria” value was found to be 8.

For `CC1(C)CC(S(=N)(=O)Cc2ccccc2OC(F)(F)F)=NO1` (centres unmarked) [1.24], in data set [1], the “Herbicidal action on Agrostis” value turned out to be 10, the “Herbicidal action on Digitaria” value is reported as 9, the “Herbicidal action on Poa (damage rating)” value was found to be 0 and the “Herbicidal action on Setaria” value amounted to 8.

On to `CC(C)(C)OC(=O)N=S(=O)(Cc1c(F)cccc1F)C1=NOC(C)(C)C1` (centres unmarked) [1.06], for which, in data set [1], the “Herbicidal action on Agrostis” value was 9, the “Herbicidal action on Digitaria” value is on record as 7, the “Herbicidal action on Poa (damage rating)” value is on record as 6 and the “Herbicidal action on Setaria” value is given as 10.

On to `CC(c1c(F)cccc1F)S(=O)(=NC(=O)C(F)(F)F)C1=NOC(C)(C)C1` (centres unmarked) [1.20], for which, in data set [1], the “Herbicidal action on Agrostis” value was found to be 9, the “Herbicidal action on Digitaria” value amounted to 8, the “Herbicidal action on Poa (damage rating)” value was 4 and the “Herbicidal action on Setaria” value is on record as 8.

Take `CC1(C)CC(S(=N)(=O)Cc2cccc(F)c2F)=NO1` (centres unmarked) [1.29]: in data set [1], the “Herbicidal action on Agrostis” value is recorded as 10, the “Herbicidal action on Digitaria” value turned out to be 8, the “Herbicidal action on Poa (damage rating)” value is reported as 10 and the “Herbicidal action on Setaria” value is 6.

As to `CC(c1c(F)cccc1F)S(=O)(=NC(=O)C(F)(F)F)C1=NOC(C)(C)C1` (centres unmarked) [1.19], in data set [1], the “Herbicidal action on Agrostis” value was found to be 10, the “Herbicidal action on Digitaria” value turned out to be 9, the “Herbicidal action on Poa (damage rating)” value stood at 6 and the “Herbicidal action on Setaria” value is reported as 9.

As to `CC1(C)CC(S(=O)(Cc2c(F)cccc2F)=NC=O)=NO1` (centres unmarked) [1.13], in data set [1], the “Herbicidal action on Agrostis” value turned out to be 10, the “Herbicidal action on Digitaria” value was found to be 9, the “Herbicidal action on Poa (damage rating)” value turned out to be 10 and the “Herbicidal action on Setaria” value came out at 9.

Take `CN=S(=O)(Cc1c(F)cccc1F)C1=NOC(C)(C)C1` (centres unmarked) [1.08, 3-{2,6-difluoro-phenylmethane(N-methyl)sulfoximinyl)-5,5-dimethyl-4,5-dihydroisoxazole]: in data set [1], the “Herbicidal action on Agrostis” value is recorded as 10, the “Herbicidal action on Digitaria” value is 7, the “Herbicidal action on Poa (damage rating)” value came out at 10 and the “Herbicidal action on Setaria” value came to 9.

`Cn1nc(C(F)(F)F)c(CS(=N)(=O)C2=NOC(C)(C)C2)c1Cl` (centres unmarked) [2.01]: in data set [1], the “Herbicidal action on Agrostis” value is given as 10, the “Herbicidal action on Digitaria” value was determined as 10, the “Herbicidal action on Poa (damage rating)” value was determined as 10 and the “Herbicidal action on Setaria” value is 10.

For the molecule `CC1(C)CC(S(=O)(Cc2c(F)cccc2F)=N[N+](=O)[O-])=NO1` (centres unmarked) [1.15], in data set [1], the “Herbicidal action on Agrostis” value was determined as 10, the “Herbicidal action on Digitaria” value is reported as 9, the “Herbicidal action on Poa (damage rating)” value amounted to 10 and the “Herbicidal action on Setaria” value came to 8.

Regarding `CC1(C)CC(S(=O)(=NC(=O)c2ccccc2)C(F)c2c(F)cccc2F)=NO1` (centres unmarked) [1.35], in data set [1], the “Herbicidal action on Agrostis” value came out at 10, the “Herbicidal action on Digitaria” value is recorded as 8, the “Herbicidal action on Poa (damage rating)” value was found to be 10 and the “Herbicidal action on Setaria” value was determined as 8.

Regarding `CC1(C)CC(S(=N)(=O)C(F)(F)c2c(F)cccc2F)=NO1` (centres unmarked) [1.22], in data set [1], the “Herbicidal action on Agrostis” value was determined as 10, the “Herbicidal action on Digitaria” value was 10, the “Herbicidal action on Poa (damage rating)” value is on record as 10 and the “Herbicidal action on Setaria” value came out at 10.

Turning to `CC(=O)N=S(=O)(Cc1c(F)cccc1F)C1=NOC(C)(C)C1` (centres unmarked) [1.07], in data set [1], the “Herbicidal action on Agrostis” value is reported as 10, the “Herbicidal action on Digitaria” value was 9, the “Herbicidal action on Poa (damage rating)” value came to 10 and the “Herbicidal action on Setaria” value is on record as 9.

As for `CC1(C)CC(S(=N)(=O)C(F)c2ccccc2OC(F)(F)F)=NO1` (mixture of isomers) [1.56], in data set [1], the “Herbicidal action on Agrostis” value is 10, the “Herbicidal action on Digitaria” value was found to be 9, the “Herbicidal action on Poa (damage rating)” value worked out at 10 and the “Herbicidal action on Setaria” value was determined as 8.

As for `CC1(C)CC(S(=N)(=O)Cc2ccc(F)cc2F)=NO1` (centres unmarked) [1.30], in data set [1], the “Herbicidal action on Agrostis” value is 10, the “Herbicidal action on Digitaria” value is 10, the “Herbicidal action on Poa (damage rating)” value stood at 10 and the “Herbicidal action on Setaria” value stood at 8.

Turning to `CC1(C)CC(S(=O)(Cc2c(F)cccc2F)=NC(=O)c2ccc(Cl)cc2)=NO1` (centres unmarked) [1.03], the melting point fell in the range of 154 to 156 °C. In data set [1], the “Herbicidal action on Agrostis” value stood at 7, the “Herbicidal action on Digitaria” value is 8, the “Herbicidal action on Poa (damage rating)” value is 10 and the “Herbicidal action on Setaria” value is given as 8.

On to `CC1(C)CC(S(=O)(Cc2c(F)cccc2F)=NS(=O)(=O)C(F)(F)F)=NO1` (centres unmarked) [1.14, 3-{2,6-difluoro-phenylmethane(N-trifluoromethylsulphonyl)-sulfoximinyl)-5,5-dimethyl-4,5-dihydroisoxazole], for which the melting point is 108 °C. Further, in data set [1], the “Herbicidal action on Agrostis” value is given as 10, the “Herbicidal action on Digitaria” value was found to be 7, the “Herbicidal action on Poa (damage rating)” value was found to be 10 and the “Herbicidal action on Setaria” value turned out to be 0.

`CC1(C)CC(S(=N)(=O)C(Cl)c2c(F)cccc2F)=NO1` (mixture of isomers) [1.02]: in data set [1], the “Herbicidal action on Agrostis” value was 10, the “Herbicidal action on Digitaria” value is reported as 10, the “Herbicidal action on Poa (damage rating)” value is given as 10 and the “Herbicidal action on Setaria” value stood at 10.

Consider `CC1(C)CC(S(=O)(Cc2c(F)cccc2F)=NC(=O)c2ccccc2)=NO1` (centres unmarked) [1.36], for which, in data set [1], the “Herbicidal action on Agrostis” value is given as 10, the “Herbicidal action on Digitaria” value is on record as 5, the “Herbicidal action on Poa (damage rating)” value amounted to 0 and the “Herbicidal action on Setaria” value came out at 7.

Turning to `CC1(C)CC(S(=O)(=NC(=O)C(F)(F)F)C(Cl)c2c(F)cccc2F)=NO1` (centres unmarked) [1.05], in data set [1], the “Herbicidal action on Agrostis” value stood at 10, the “Herbicidal action on Digitaria” value is 9, the “Herbicidal action on Poa (damage rating)” value worked out at 10 and the “Herbicidal action on Setaria” value was 9.

In the case of `CC1(C)CC(S(=N)(=O)Cc2cc(F)ccc2F)=NO1` (centres unmarked) [1.34], in data set [1], the “Herbicidal action on Agrostis” value stood at 10, the “Herbicidal action on Digitaria” value turned out to be 9, the “Herbicidal action on Poa (damage rating)” value is 10 and the “Herbicidal action on Setaria” value stood at 8.
